We go through six molecules from patent US8926966B1 (Regents of the University of California, priority 1990, dated 2015).

Test [1] deals with NOD mice. Description: Insulitis score after tolerization of NOD mice. Type of test: in vivo, mouse. The following applies: examined at 12 weeks.
For test [2], the system named is spleen cells of NOD mice. Description: Spleen cell proliferation (recall response to antigens) after tolerization of NOD mice. In kind it is cell-based, mouse. The following applies: tested at 12 weeks; for Spleen Cell Proliferation (SI ± SEM) GAD: recall antigen GAD; for Spleen Cell Proliferation (SI ± SEM) GAD Peptides #17: recall antigen GAD peptide #17; for Spleen Cell Proliferation (SI ± SEM) GAD Peptides #34: recall antigen GAD peptide #34; for Spleen Cell Proliferation (SI ± SEM) GAD Peptides #35: recall antigen GAD peptide #35; for Spleen Cell Proliferation (SI ± SEM) hsp Peptide: recall antigen hsp peptide; for Spleen Cell Proliferation (SI ± SEM) β-Gal: recall antigen β-Gal. The protocol: Incorporation of label was measured by liquid scintillation counting.

The subject of test [3] is IDDM associated autoantibodies in sera. As to the kind of experiment: ELISA of sera on plate-bound human GAD65 peptides. In kind it is binding. The following applies: for number of IDDM (at risk, pre-IDDM, at onset) patients positive (X) for the peptide (unlabelled sum line): IDDM sera of Table 11. A digest of the protocol: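 Blinded, coded sera (1/300) bound 1 h at 37 °C to wells coated overnight at 4 °C with peptides (20 ug/ml, pH 9.6), BSA-blocked. Detection with HRP-goat anti-human IgG (1/600), read at 410 nm; positive when sample/negative-control OD410 ≥3.0.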
(In general: ELISA stands for enzyme-linked immunosorbent assay.)

Test [4] concerns spleen cells of NOD mice. As to the kind of experiment: Proliferative responses of NOD spleen cells to GAD peptides. Type of test: cell-based, mouse. The note with it: peptide 7 μM, 5-day culture. The method, then: The fine specificity of the anti-GAD T-cell response was mapped using a set of 38 peptides (numbered successively from the N-terminus) that were 20-23 amino acids (aa) long and span the entire GAD65 (Bu, et al., Proc. Natl. Acad. Sci., 89:2115-2119, 1992) sequence with 5aa overlaps (FIG. 10).
Peptides were present in cultures at 7 μM and the label was added during the last 16 hours of a 5-day culture. The peptides were synthesized using standard Fmoc chemistry and purified by reverse phase HPLC (Advanced Chemtech). The sequence of stimulatory peptides are shown below in Table 9.

Test [5] has as its system NOD mice. Description: GAD immunization of 8 week old NOD mice, IDDM onset. In kind it is in vivo, mouse. The note with it: 25 ug i.p. in IFA at 8 weeks, again every 6 weeks. From the text:
Breeder mice were purchased from Taconic Farms and housed under specific pathogen-free conditions. Only female NOD mice were used in this study. […] Insulitis is generally observed beginning at 4 weeks of age. […] The incidence of IDDM in female mice is 70-90% by one year of age.
Urine glucose levels were monitored twice weekly. After observing above normal glucose in urea, blood glucose levels were monitored twice weekly.

Test [6] relates to autoantibodies to GAD in patient sera. Description: Immunoprecipitation of ^35S-GAD65 / ^35S-GAD67 by sera drawn prior to IDDM onset. Type of test: binding, human. Set-up: key to band intensity of immunoprecipitated ^35S-GAD: 1 = lowest; 2 = medium; 3 = highest band intensities. The method, then:
Islet cells were extracted as previously described by Atkinson, et al. (Lancet, 335:1357-1360, 1990) with the following modifications. […] The protein A Sepharose CL-4B was then boiled in Laemmli sample buffer (Laemmli, Nature, 227:680-685, 1970), and the samples were subjected to SDS-PAGE and fluororadiography (Kodak, X-omat AR5) using Enhance (New England Nuclear). Alternatively, the autoradiographs were analyzed by a BETAGEN (Boston, Mass.) analyzer. Both 64KA positive and negative sera were used in each assay, to serve as interassay controls. All fluororadiographs were analyzed and rated as positive or negative after comparison with the known interassay controls. […] A similar rating procedure was employed for the intensity of bands corresponding to immunoprecipitated ^35S-GAD65 and ^35S-GAD67.
Rat GAD65 and GAD67 cDNAs were subcloned into a bacterial expression system as previously described. Labeling of ^35S-GADs was completed by pulsing IPTG induced bacterium (growing in Minimal Media) for 15 minutes with TRAN ^35S-label (ICN). Cultures were then spun down and resuspended and sonicated in 1 ml of homogenizing buffer (1 mM phenylmethylsulfonyl fluoride (PMSF), 1 mM 2-aminoethylisothiouronium Bromide (AET) and 60 mM potassium phosphate, pH 7.1). After sonication, cell debris was removed by centrifugation and protein concentration was measured (Bradford, Anal. Biochem., 72:248, […]) in the supernatant (supernatant was stored in aliquots at −70° C.).

The mark [7] stands for this setting: Table 8B: neonatal i.p. with IFA.
[8] abbreviates: Table 8C: i.v. at three weeks of age.

Turning to EEILMHCQTTLKYAIKTGHP [Peptide 11], in test [1] (Table 8B: neonatal female NOD mice, i.p. with IFA, scale 0-4), the “Insultis Score” value is “≈2.5”. Further, the figures for the “Spleen Cell Proliferation (SI ± SEM) GAD” value in test [2] (setting [7]) and in test [2] (setting [8]) were 21.1 ± 2.2 SI and 12.1 ± 3.5 SI, respectively. For the same molecule, the “Spleen Cell Proliferation (SI ± SEM) GAD Peptides #17” value is 13.7 ± 1.5 SI in test [2] (setting [7]) and 6.9 ± 0.4 SI in test [2] (setting [8]). Further, the “Spleen Cell Proliferation (SI ± SEM) GAD Peptides #34” value in test [2] (setting [7]) came out at 11.4 ± 1.5 SI; in test [2] (setting [8]) it was 6.4 ± 1.0 SI. Further, the “Spleen Cell Proliferation (SI ± SEM) GAD Peptides #35” value in test [2] (setting [7]) stood at 11.3 ± 0.7 SI; in test [2] (setting [8]), 6.8 ± 0.3 SI. Besides, the “Spleen Cell Proliferation (SI ± SEM) hsp Peptide” value was 13.3 ± 0.9 SI in test [2] (setting [7]) and 8.7 ± 0.9 SI in test [2] (setting [8]). Moreover, the results for the “Spleen Cell Proliferation (SI ± SEM) β-Gal” value in test [2] (setting [7]) and in test [2] (setting [8]) were 1.0 ± 0.1 SI and 1.4 ± 0.4 SI, respectively. Besides, the “immunoreactivity of serum with GAD65 peptide” value (“immunoreactivity of serum” below) in test [3] (IDDM At Risk serum 825, 1/300 dilution) is reported as “X (X = positive for immunoreactivity as defined by 00/background^3.0)”; in test [3] (IDDM At Risk serum L.I., 1/300 dilution), “b (b = borderline response (00/background ?2.5-2.9).)”; in test [3] (Pre-IDDM serum B.Y. (1), 1/300 dilution), “X (X = positive for immunoreactivity as defined by 00/background^3.0)”; in test [3] (Pre-IDDM serum J.B. (1), 1/300 dilution), “b (b = borderline response (00/background ?2.5-2.9).)”; in test [3] (Pre-IDDM serum J.B. (2), 1/300 dilution), “b (b = borderline response (00/background ?2.5-2.9).)”; in test [3] (Pre-IDDM serum R.S. (1), 1/300 dilution), “b (b = borderline response (00/background ?2.5-2.9).)”. The “immunoreactivity of serum” value in test [3] (Pre-IDDM serum R.S. (2), 1/300 dilution) was “b (b = borderline response (00/background ?2.5-2.9).)”. The “number of IDDM (at risk, pre-IDDM, at onset) patients positive (X) for the peptide (unlabelled sum line)” value (shortened to “number of IDDM”) in test [3] is 2.

Consider IPPSLRTLEDNEERMSRLSK [Peptide 34], for which the “age of NOD mice at first regularly detectable proliferative response” value (“age of NOD mice” below) in test [4] stood at 4 weeks. The “immunoreactivity of serum” value is “X (X = positive for immunoreactivity as defined by 00/background^3.0)” in test [3] (IDDM At Onset serum 048, 1/300 dilution) and “b (b = borderline response (00/background ?2.5-2.9).)” in test [3] (IDDM At Onset serum 291, 1/300 dilution). In test [3], the “number of IDDM” value is 1.

On to NMYAMMIARFKMFPEVKEKG [Peptide 17], for which the “age of NOD mice” value in test [4] amounted to 5 weeks.

As to SRLSKVAPVIKARMMEYGTT [Peptide 35], the “age of NOD mice” value in test [4] is 4 weeks. The “number of IDDM” value in test [3] is on record as 1. The “immunoreactivity of serum” value in test [3] (Pre-IDDM serum 723, 1/300 dilution) is “X (X = positive for immunoreactivity as defined by 00/background^3.0)”.

Take “β-Gal.: E. coli β-galactosidase, control antigen purified from recombinant bacteria [reference compound]”: the “Insultis Score” value in test [1] (Table 8A: female NOD mice, i.v. at 3 weeks of age, 50 μg (hsp-p 0.1 μg) in PBS, scale 0-4, mean ± SE) is listed as 2.6 ± 0.6. Besides, the “Spleen Cell Proliferation (SI ± SEM) CPH” value in test [2] (Table 8A: i.v. at 3 weeks, recall antigen CPH) is 11.5 ± 0.9 SI. Moreover, in test [2] (Table 8A: i.v. at 3 weeks), the “Spleen Cell Proliferation (SI ± SEM) GAD” value was 15.4 ± 1.8 SI, the “Spleen Cell Proliferation (SI ± SEM) GAD Peptides #17” value turned out to be 5.1 ± 0.6 SI, the “Spleen Cell Proliferation (SI ± SEM) GAD Peptides #34” value came to 5.1 ± 0.6 SI and the “Spleen Cell Proliferation (SI ± SEM) GAD Peptides #35” value came to 4.0 ± 0.2 SI. Besides, in test [2] (Table 8A: i.v. at 3 weeks), the “Spleen Cell Proliferation (SI ± SEM) hsp Peptide” value is recorded as 6.6 ± 0.5 SI and the “Spleen Cell Proliferation (SI ± SEM) β-Gal” value is on record as 1.1 ± 0.1 SI. The “mice that developed IDDM by 27 weeks in age” value in test [5] is given as 6/10. Besides, the “mice remaining disease free at 52 weeks of age” value in test [5] (10 mice per group) is reported as 2.

B1: GAD67: rat GAD67 expressed in bacteria, ^35S-labeled, in bacterial lysate (protein)
chain: MASSTPSPATSSNAGADPNTTNLRPTTYDTWCGVAHGCTRKLGLKICGFLQRTNSLEEKSRLVSAFRERQASKNLLSCENSDPGARFRRTETDFSNLFAQDLLPAKNGEEQTVQFLLEVVDILLNYVRKTFDRSTKVLDFHHPHQLLEGMEGFNLELSDHPESLEQILVDCRDTLKYGVRTGHPRFFNQLSTGLDIIGLAGEWLTSTANTNMFTYEIAPVFVLMEQITLKKMREIIGWSNKDGDGIFSPGGAISNMYSIMAARYKYFPEVKTKGMAAVPKLVLFTSEHSHYSIKKAGAALGFGTDNVILIKCNERGKIIPADLEAKILDAKQKGFVPLYVNATAGTTVYGAFDPIQEIADICEKYNLWLHVDAAWGGGLLMSRKHRHKLSGIERANSVTWNPHKMMGVLLQCSAILVKEKGILQGCNQMCAGYLFQPDKQYDVSYDTGDKAIQCGRHVDIFKFWLMWKAKGTVGFENQINKCLELAEYLYAKIKNREEFEMVFNGEPEHTNVCFWYIPQSLRGVPDSPERREKLHRVAPKIKALMMESGTTMVGYQPQGDKANFFRMVISNPAATQSDIDFLIEEIERLGQDL
Take B1: the “band intensity of immunoprecipitated ^35S-GAD” value is 0 in test [6] (serum of patient eight, drawn 8 months before IDDM onset); 1 in test [6] (serum of patient eleven, drawn 10 months before IDDM onset); 0 in test [6] (serum of patient five, drawn 34 months before IDDM onset); 0 in test [6] (serum of patient nine, drawn 42 months before IDDM onset); 1 in test [6] (serum of patient one, drawn 9 months before IDDM onset); 1 in test [6] (serum of patient seven, drawn 3 months before IDDM onset). Moreover, the “band intensity of immunoprecipitated ^35S-GAD” value in test [6] (serum of patient six, drawn 11 months before IDDM onset) is given as 1; in test [6] (serum of patient ten, drawn 25 months before IDDM onset), 1; in test [6] (serum of patient three, drawn 14 months before IDDM onset) it was 0; in test [6] (serum of patient twelve, drawn 4 months before IDDM onset), 0; in test [6] (serum of patient two, drawn 6 months before IDDM onset), 2; in test [6] (serum of patient, drawn 66 months before IDDM onset) it was 0.
